From patent US5872107A, “Treatment of urogenital cancer with boron neutron capture therapy” (Emory University, priority 1997, dated 1999)
Values joined by “and” are separate entries in the source; they are usually repeats but may differ in a detail not shown here. Equal values may be shown once. “Also recorded” adds a separate entry of the source.

Key:
[1] = Toxicity study: weight change and survival of normal Swiss mice; format: in vivo, Swiss female mice; conditions: 30 mg/kg/day i.p.
Protocol: A toxicity study was conducted on 6-week-old Swiss female mice treated with CDU and CFAU at 30 mg/kg/day. The compounds were prepared in sterile DMSO and injected intraperitoneally (0.1 mL). DMSO and water were used as controls, with the same injection volume as that used for the CDU and CFAU solutions. The dosing schedule used was once a day for 6 days, and the mice were weighed biweekly for 28 days. Results shown in Table 3 somewhat correlate with the cytotoxicity assays in vitro.

[2] = tested on: human lymphoma (CEM) cells; assay: Cellular uptake and intracellular phosphorylation, CEM cells; format: cell-based
Text: (§1) Carboranyl-containing nucleosides and oligonucleotides, which are lipophilic and have a high content of boron atoms, are particularly suited for use in BNCT of urogenital tumors. Preferred compounds include 5-carboranyl-2'-deoxyuridine (CDU) and 5-o-carboranyl-1-(2-deoxy-2-fluoro-β-D-arabinofuranosyl)uracil (CFAU). […] The entrapment of this molecule in cells allows for the enhancement of the tumor-to-blood ratio for BNCT. CFAU has increased glycosidic bond stability conferred by the β-fluorine group positioned on the 2'-carbon of the nucleoside.
It has been discovered that boron neutron capture therapy, optionally combined with antisense oligonucleotide therapy, can be used in the treatment of urogenital cancer, and in particular, that of the prostate, bladder, and kidney. Any boron-containing compound that is sufficiently lipophilic to pass through the appropriate urogenital membranes in a quantity high enough to achieve therapy on irradiation with low-energy neutrons can be used. Carboranyl-containing nucleosides and oligonucleotides, which are lipophilic and have a high content of boron atoms, are particularly suited for use in BNCT of urogenital cancer. Preferred compounds include 5-carboranyl-2'-deoxyuridine (CDU) and 5-o-carboranyl-1-(2-deoxy-2-fluoro-β-D-arabinofuranosyl)uracil (CFAU). […] The entrapment of this molecule in cells allows the enhancement of the tumor-to-blood ratio for BNCT. CFAU has increased glycosidic bond stability conferred by the β-fluorine group positioned on the 2'-carbon of the nucleoside.

[3] = Brain uptake of CDU after loading dose and three hour intravenous infusion; format: in vivo, Sprague-Dawley rats
Protocol: Two adult male sprague-dawley rats weighing 305 and 312 g were used to examine the brain uptake of CDU. A loading dose of 5 mg/kg CDU in […] of DMSO was administered intravenously over a one minute period followed by three hour infusion of CDU at the rate of 5 mg/h/kg (50 μl/h) using an infusion […]. At the end of infusion blood samples were collected and rats were sacrificed. The brains were dissected and frozen at -20° C. until analysis.
Concentrations of CDU in plasma, brain, and urine were determined by HPLC. For the determination of CDU in brain, the brain tissue was homogenized in a 1:2 (g:ml) ratio with isotonic sodium phosphate buffer, pH 7.4. To 200 μl of plasma or brain homogenate in a glass test tube, 50 μl of internal standard (20 μg/ml progesterone) and 5 ml of methylene chloride was added. Tubes were shaken for 15 minutes at low speed on a shaker, centrifuged for 5 minutes at 2000 rpm, and the plasma layer was aspirated off using a vacuum system. The remaining methylene chloride was transferred to a glass culture tube and evaporated to dryness under a stream of nitrogen gas at ambient temperature. The residue was reconstituted with 250 μl of methanol and injected onto HPLC system.

[4] = Urinary excretion of unchanged CDU and CDU glucuronide; format: in vivo, Sprague-Dawley rats
Protocol: On the morning of the experiment, rats were placed in individual metabolism cages. CDU […]) was administered intravenously in 0.1 ml of DMSO to the rats over a one minute period. Blood samples (0.35 ml) were collected prior to and at […], 2, 3, 4, 5, 6, 7 and 8 hour after CDU administration from the cannula into heparinized polypropylene microcentrifuge tubes. Blood volume was replaced with an equal volume of normal saline. Blood samples were immediately centrifuged at 2000 g for 5 minutes and plasma was separated and frozen at -20° C. until analysis. Urine was collected for 24 hour following CDU administration. Urine volume was measured and samples were frozen at -20° C. until analysis.
For the determination of unchanged CDU in urine, urine samples were diluted 1:50 with distilled deionized water and 100 μl of internal standard (50 μg/ml progesterone) was added and injected onto the HPLC. Concentrations of CDU glucuronide in urine were determined after hydrolyzing the glucuronate with β-glucuronidase as previously described. Glucuronide concentrations were calculated as the difference between CDU concentrations measured after hydrolysis and before hydrolysis with β-glucuronidase.

[5] = Plasma protein binding of CDU by equilibrium dialysis; format: in vitro ADME, rat
Protocol: Protein binding was determined by equilibrium dialysis. Various amounts of CDU were added to drug free rat plasma to yield CDU concentrations ranging from 0.5 to 100 μg/ml. Plexiglass dialysis cells and dialysis membrane (Spectrapor II, Spectrum Medical Industries, Los Angeles, Calif.) were used. Plasma (0.8 ml) containing different concentrations of CDU was dialyzed against 0.8 ml of isotonic sodium phosphate buffer, pH 7.4, in a shaking water bath at 37° C. for 16 hours. The post-dialysis plasma and buffer volumes were measured and samples were frozen at -20° C. until analysis. The binding data was corrected for fluid shifts that occurred during dialysis. Experiments were performed in duplicate.
This concentration range encompassed those observed following intravenous administration of 25 mg/kg CDU to rats. Assuming that the lipophilic compound CDU is bound predominantly by hydrophobic interactions to albumin, the equilibrium association constant for the protein binding of CDU was approximately 4×10^4 M^-1.

[6] = tested on: primary human peripheral blood mononuclear (PBM) cells; assay: Cellular uptake and intracellular phosphorylation, PBM cells; format: cell-based
Text: as §1
It has been discovered that boron neutron capture therapy, optionally combined with antisense oligonucleotide therapy, can be used in the treatment of urogenital cancer, and in particular, that of the prostate, bladder, and kidney. Any boron-containing compound that is sufficiently lipophilic to pass through the appropriate urogenital membranes in a quantity high enough to achieve therapy on irradiation with low-energy neutrons can be used. Carboranyl-containing nucleosides and oligonucleotides, which are lipophilic and have a high content of boron atoms, are particularly suited for use in BNCT of urogenital cancer. Preferred compounds include 5-carboranyl-2'-deoxyuridine (CDU) and 5-o-carboranyl-1-(2-deoxy-2-fluoro-β-D-arabinofuranosyl)uracil (CFAU). […]

[7] = i.v. infusion to steady state, each of two rats, 5 mg/kg, 180 min

Substance: 5-carboranyl-2'-deoxyuridine [CDU]
- weight loss after 1 week (in words) ([1]; CFAU and CDU compared): comparable weight loss after 1 week
- weight recovery at 4 weeks (in words) ([1]; surviving animals): all the surviving animals recovered their weight loss to control untreated levels
- % of weight gained or lost on week 1 ([1]; week 1, once a day for 6 days): -7.4%
- % of weight gained or lost on week 2 ([1]; week 2, once a day for 6 days): 0.1%
- % of weight gained or lost on week 3 ([1]; week 3, once a day for 6 days): 4.8%
- % of weight gained or lost on week 4 ([1]; week 4, once a day for 6 days): 11.2%
- survival at week 4, alive/total ([1]; week 4, once a day for 6 days): 5/5
- survival at week 4 (%) ([1]; week 4, once a day for 6 days, 40320 min): 100%
- intracellular formation of CDU 5'-monophosphate (in words) ([2]; cells not separated (CEM and PBM named)): CDU 5'-monophosphate is formed intracellularly; also recorded: CDU-5'-monophosphate is formed intracellularly
- intracellular phosphorylation in CEM cells (in words) ([2]; human lymphoma (CEM) cells): intracellularly phosphorylated
- uptake by CEM cells (in words) ([2]; human lymphoma (CEM) cells): taken up
- brain:unbound plasma CDU ratio ([3]; i.v. infusion to steady state, each of two rats): 10.26 and 7.87
- brain CDU concentration [3, 7]: 2.77 µg/mL and 1.81 µg/mL
- brain:total plasma CDU concentration ratio [3, 7]: 0.47 and 0.36
- total plasma CDU concentration [3, 7]: 5.92 µg/mL and 5.01 µg/mL
- brain concentrations as % of total plasma CDU concentrations ([3]; i.v. infusion to steady state, two rats, 5 mg/kg, 180 min): 36 to 47%
- brain:plasma ratio based on unbound vs total plasma concentrations ([3]; unbound compared to total): 20 fold
- unchanged CDU in urine (in words) ([4]; 24 hours following 25 mg/kg i.v.): No unchanged CDU was detected in urine; also recorded: No unchanged CDU was recovered in urine
- renal excretion (in words) ([4]; rat): not renally excreted to any significant extent
- renal tubular reabsorption (in words) ([4]; rat, inferred from absence of unchanged CDU in urine): virtually complete renal tubular reabsorption
- CDU glucuronide in urine (in words) ([4]; urine treated with β-glucuronidase, 25 mg/kg i.v., 25 mg/kg): no trace of CDU glucuronide in urine; also recorded: no glucuronide metabolites were detected in urine samples
- concentration dependence of plasma protein binding (in words) ([5]; 0.5 μg/ml to 100 μg/ml): independent of the nucleoside concentration; also recorded: in a linear manner
- bound to plasma proteins ([5]; 0.5 μg/ml to 100 μg/ml, rat plasma, 960 min): 95.5%
- equilibrium association constant for the protein binding ([5]; assuming binding predominantly to albumin, 960 min): approximately 4×10^4 M^-1
- average fraction bound to the plasma proteins ([5]; rat plasma, 37° C., pH 7.4, 960 min): 0.95±0.02
- intracellular phosphorylation in PBM cells (in words) [6]: intracellularly phosphorylated
- uptake by PBM cells (in words) [6]: taken up
